Test results published in patent publication US12325697B2 (Nimbus Clio, Inc., priority 2021, dated 2025).

Assays:
[1] = system: Phospho-Zap70 (Y-319) in Jurkat wild-type (clone E6-1) cells; assay: Jurkat pZAP70 HTRF Assay; assay type: cell-based; details: Homo sapiens, anti-CD3 5 μg/ml, 3 hr, read-out: ZAP70 Jurkat EC50
[2] = molecular target: Recombinant human Cbl-b (aa 36-427) (Homo sapiens (Human), UniProt Q13191); assay: Cbl-b Biochemical Assay (TR-FRET); details: read-out: TR-FRET hCbl-b IC50
Sequence of Recombinant human Cbl-b (aa 36-427) (Q13191 36-427): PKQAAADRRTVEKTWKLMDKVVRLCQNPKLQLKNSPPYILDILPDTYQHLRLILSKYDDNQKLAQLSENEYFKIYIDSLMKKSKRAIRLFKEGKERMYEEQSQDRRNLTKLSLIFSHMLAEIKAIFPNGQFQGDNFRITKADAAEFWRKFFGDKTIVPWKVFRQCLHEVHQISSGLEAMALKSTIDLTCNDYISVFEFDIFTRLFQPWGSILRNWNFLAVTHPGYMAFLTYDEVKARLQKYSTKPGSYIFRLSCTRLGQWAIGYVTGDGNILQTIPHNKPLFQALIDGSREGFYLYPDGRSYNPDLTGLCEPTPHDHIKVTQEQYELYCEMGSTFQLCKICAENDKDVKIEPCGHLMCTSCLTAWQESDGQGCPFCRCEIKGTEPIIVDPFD
Outline: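 Two-step TR-FRET: 6 nM biotinylated Cbl-b preincubated 30-60 min with compound, then 60 min at RT with 1-2.5 nM Src-Zap70 and 0.5 mM ATP in HEPES pH 7.0 buffer, 1% DMSO. Stopped with 5 mM EDTA plus 100 nM UBE2D2-Ub-FL-BODIPY and 1 nM streptavidin-Tb, 60 min; 520 nm signal; IC50 from 4-parameter fit.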

[3] = system: Jurkat (clone E6-1) cells, NFAT luciferase reporter; assay: Jurkat Reporter Assay (NFAT Luciferase); assay type: cell-based; details: Homo sapiens, anti-CD3 stimulation, 6 hr, read-out: Jurkat NFAT EC50

| Compound | EC50 [1] | IC50 [2] | EC50 [3] |
| --- | --- | --- | --- |
| Cn1cnnc1-c1cnn(C)c1-c1cc(C2CC2)nc(N2Cc3ccc(CNCC4(O)CCCC4)cc3C2=O)c1 [AFQ-3, 2-{6-Cyclopropyl-4-[2-methyl-4-(4-methyl-1,2,4-triazol-3-yl)pyrazol-3-yl]pyridin-2-yl}-6-({[(1-hydroxycyclopentyl)methyl]amino}methyl)-3H-isoindol-1-one] | < 200 nM | ≤ 200 nM | < 200 nM |
| CCNc1cc(-c2ccc(C#N)cc2-c2nncn2C)cc(N2Cc3c(cc(C(O)CN(C)C)cc3C(F)(F)F)C2=O)n1 (stereo not drawn) [AFR-7, 4-(2-{6-[2-(Dimethylamino)-1-hydroxyethyl]-1-oxo-4-(trifluoromethyl)-3H-isoindol-2-yl}-6-(ethylamino)pyridin-4-yl)-3-(4-methyl-1,2,4-triazol-3-yl) benzonitrile] | < 200 nM | ≤ 200 nM | < 200 nM |
| CC(=O)c1cc2c(c(C(F)(F)F)c1)CN(c1cc(-c3ccccc3-c3nncn3C)cc(C3CC3)n1)C2=O [AFS-1, 6-Acetyl-2-{6-cyclopropyl-4-[2-(4-methyl-1,2,4-triazol-3-yl)phenyl]pyridin-2-yl}-4-(trifluoromethyl)-3H-isoindol-1-one] | 10000 to 50000 nM | ≤ 200 nM | 200 to 1000 nM |
| Cn1cnnc1-c1cnn(C)c1-c1cc(C2CC2)nc(N2Cc3c(cc(COCC4(O)CCC4)cc3C(F)(F)F)C2=O)c1 [AFV-3, 2-{6-Cyclopropyl-4-[2-methyl-4-(4-methyl-1,2,4-triazol-3-yl)pyrazol-3-yl]pyridin-2-yl}-6-{[(1-hydroxycyclobutyl)methoxy]methyl}-4-(trifluoromethyl)-3H-isoindol-1-one] | 200 to 1000 nM | ≤ 200 nM | < 200 nM |
| C=C(C)c1cc(-c2ccc(F)cc2-c2nncn2C)cc(N2Cc3ccc(CNCC4(O)CCC4)cc3C2=O)n1 [AFW-3, 2-{4-[4-Fluoro-2-(4-methyl-1,2,4-triazol-3-yl)phenyl]-6-(prop-1-en-2-yl)pyridin-2-yl}-6-({[(1-hydroxycyclobutyl)methyl]amino}methyl)-3H-isoindol-1-one] | < 200 nM | ≤ 200 nM | < 200 nM |
| CC(C)c1cc(-c2ccc(F)cc2-c2nncn2C)cc(N2Cc3ccc(CNCC4(O)CCC4)cc3C2=O)n1 [AFX-1, 2-{4-[4-Fluoro-2-(4-methyl-1,2,4-triazol-3-yl)phenyl]-6-isopropylpyridin-2-yl}-6-({[(1-hydroxycyclobutyl)methyl]amino}methyl)-3H-isoindol-1-one] | < 200 nM | ≤ 200 nM | < 200 nM |
| CCNc1cc(-c2ccc(F)cc2-c2nncn2C)cc(N2Cc3c(cc(CO[C@@H]4CCC[C@@H]4O)cc3C(F)(F)F)C2=O)n1 [AFZ-1, 2-[6-(Ethylamino)-4-[4-fluoro-2-(4-methyl-1,2,4-triazol-3-yl)phenyl]pyridin-2-yl]-6-({[(1R,2S)-2-hydroxycyclopentyl]oxy}methyl)-4-(trifluoromethyl)-3H-isoindol-1-one] | 200 to 1000 nM | ≤ 200 nM | < 200 nM |
| Cn1cnnc1-c1cnn(C)c1-c1cc(C2CC2)nc(N2Cc3c(cc(CO[C@H]4CCC[C@H]4O)cc3C(F)(F)F)C2=O)c1 [AGA-1, 2-{6-Cyclopropyl-4-[2-methyl-4-(4-methyl-1,2,4-triazol-3-yl)pyrazol-3-yl]pyridin-2-yl}-6-({1[(1R,2S)-2-hydroxycyclopentyl]oxy}methyl)-4-(trifluoromethyl)-3H-isoindol-1-one] | 200 to 1000 nM | ≤ 200 nM | < 200 nM |
| CCNc1cc(-c2ccc(F)cc2-c2nncn2C)cc(N2Cc3c(cc(COCC4(F)CCC4)cc3C(F)(F)F)C2=O)n1 [AGB-1, 2-[6-(Ethylamino)-4-[4-fluoro-2-(4-methyl-1,2,4-triazol-3-yl)phenyl]pyridin-2-yl]-6-{1[(1-fluorocyclobutyl)methoxy]methyl}-4-(trifluoromethyl)-3H-isoindol-1-one] | 1000 to 10000 nM | ≤ 200 nM | < 200 nM |
| CCNc1cc(-c2ccc(C#N)cc2-c2nncn2C)cc(N2Cc3c(cc(CNC4CCCC4=O)cc3C(F)(F)F)C2=O)n1 (stereo not drawn) [AGC-5, 4-[2-(Ethylamino)-6-(1-oxo-6-{[(2-oxocyclopentyl)amino]methyl}-4-(trifluoromethyl)-3H-isoindol-2-yl)pyridin-4-yl]-3-(4-methyl-1,2,4-triazol-3-yl)benzonitrile] | 200 to 1000 nM | ≤ 200 nM | < 200 nM |
| CCNc1cc(-c2ccc(C#N)cc2-c2nncn2C)cc(N2Cc3c(cc(CNCCOC4CC4)cc3C(F)(F)F)C2=O)n1 [AGD-2, 4-[2-(6-{[(2-Cyclopropoxyethyl)amino]methyl}-1-oxo-4-(trifluoromethyl)-3H-isoindol-2-yl)-6-(ethylamino)pyridin-4-yl]-3-(4-methyl-1,2,4-triazol-3-yl)benzonitrile] | < 200 nM | ≤ 200 nM | < 200 nM |
| CCNc1cc(-c2ccc(F)cc2-c2nncn2C)cc(N2Cc3c(cc(COCCO)cc3C(F)(F)F)C2=O)n1 [AGE-3, 2-[6-(Ethylamino)-4-[4-fluoro-2-(4-methyl-1,2,4-triazol-3-yl)phenyl]pyridin-2-yl]-6-[(2-hydroxyethoxy)methyl]-4-(trifluoromethyl)-3H-isoindol-1-one] | < 200 nM | ≤ 200 nM | < 200 nM |
| CCNc1cc(-c2c(-c3nncn3C)cnn2C)cc(N2Cc3c(cc(COCC4(N)CCC4)cc3C(F)(F)F)C2=O)n1 [AGF-3, 6-{[(1-Aminocyclobutyl)methoxy]methyl}-2-[6-(ethylamino)-4-[2-methyl-4-(4-methyl-1,2,4-triazol-3-yl)pyrazol-3-yl]pyridin-2-yl]-4-(trifluoromethyl)-3H-isoindol-1-one] | 1000 to 10000 nM | ≤ 200 nM | 200 to 1000 nM |
| Cn1cnnc1-c1cc(F)ccc1-c1cc(C2CC2)nc(N2Cc3c(cc(COCC4(N)CCC4)cc3C(F)(F)F)C2=O)c1 [AGG-2, 6-{1[(1-Aminocyclobutyl)methoxy]methyl}-2-{6-cyclopropyl-4-[4-fluoro-2-(4-methyl-1,2,4-triazol-3-yl)phenyl]pyridin-2-yl}-4-(trifluoromethyl)-3H-isoindol-1-one] | < 200 nM | ≤ 200 nM | < 200 nM |
| Cn1cnnc1-c1cc(F)ccc1-c1cc(C2CC2)nc(N2Cc3ccc(CO)cc3C2=O)c1 [AGH-2, 2-{6-Cyclopropyl-4-[4-fluoro-2-(4-methyl-1,2,4-triazol-3-yl)phenyl]pyridin-2-yl}-6-(hydroxymethyl)-3H-isoindol-1-one] | 1000 to 10000 nM | ≤ 200 nM | < 200 nM |
| Cn1cnnc1-c1cc(F)ccc1-c1cc(C2CC2)nc(N2Cc3ccc(COCC4(N)CCC4)cc3C2=O)c1 [AGI-3, 6-{1[(1-Aminocyclobutyl)methoxy]methyl}-2-{6-cyclopropyl-4-[4-fluoro-2-(4-methyl-1,2,4-triazol-3-yl)phenyl]pyridin-2-yl}-3H-isoindol-1-one] | < 200 nM | ≤ 200 nM | < 200 nM |
| CCNc1cc(-c2ccc(C#N)cc2-c2nncn2C)cc(N2Cc3c(cc(COCC4(N)CCC4)cc3C(F)(F)F)C2=O)n1 [AGJ-2, 4-[2-(6-{[(1-aminocyclobutyl)methoxy]methyl}-1-oxo-4-(trifluoromethyl)-3H-isoindol-2-yl)-6-(ethylamino)pyridin-4-yl]-3-(4-methyl-1,2,4-triazol-3-yl)benzonitrile] | 1000 to 10000 nM | ≤ 200 nM | < 200 nM |
| Cn1cnnc1-c1cc(C#N)ccc1-c1cc(C2CC2)nc(N2Cc3c(cc(C4(O)CCC4)cc3C(F)(F)F)C2=O)c1 [AGM-5, 4-{2-Cyclopropyl-6-[6-(1-hydroxycyclobutyl)-1-oxo-4-(trifluoromethyl)-3H-isoindol-2-yl]pyridin-4-yl}-3-(4-methyl-1,2,4-triazol-3-yl)benzonitrile] | 200 to 1000 nM | ≤ 200 nM | < 200 nM |
| Cn1cnnc1-c1cc(C#N)ccc1-c1cc(C2CC2)nc(N2Cc3c(cc(CNCCOC(F)(F)F)cc3C(F)(F)F)C2=O)c1 [AGN-3, 4-{2-Cyclopropyl-6-[1-oxo-6-({[2-(trifluoromethoxy)ethyl]amino}methyl)-4-(trifluoromethyl)-3H-isoindol-2-yl]pyridin-4-yl}-3-(4-methyl-1,2,4-triazol-3-yl)benzonitrile] | 200 to 1000 nM | ≤ 200 nM | < 200 nM |
| COCCNCc1ccc2c(c1)C(=O)N(c1cc(-c3ccc(C#N)cc3-c3nncn3C)cc(C3CC3)n1)C2 [AGO-2, 4-(2-Cyclopropyl-6-(6-(((2-methoxyethyl)amino)methyl)-1-oxoisoindolin-2-yl)pyridin-4-yl)-3-(4-methyl-4H-1,2,4-triazol-3-yl)benzonitrile] | < 200 nM | ≤ 200 nM | < 200 nM |
| Cn1cnnc1-c1cc(F)ccc1-c1cc(C2CC2)nc(N2Cc3ccc(CNCC4(O)CCCC4)cc3C2=O)c1 [AGP-1, 2-{6-Cyclopropyl-4-[4-fluoro-2-(4-methyl-1,2,4-triazol-3-yl)phenyl]pyridin-2-yl}-6-({[(1-hydroxycyclopentyl)methyl]amino}methyl)-3H-isoindol-1-one] | 200 to 1000 nM | ≤ 200 nM | < 200 nM |
| CCOc1cc(-c2ccc(F)cc2-c2nncn2C)cc(N2Cc3c(cc(CNCC4(O)CCC4)cc3C(F)(F)F)C2=O)n1 [AGQ-2, 2-{6-Ethoxy-4-[4-fluoro-2-(4-methyl-1,2,4-triazol-3-yl)phenyl]pyridin-2-yl}-6-({[(1-hydroxycyclobutyl)methyl]amino}methyl)-4-(trifluoromethyl)-3H-isoindol-1-one] | 200 to 1000 nM | ≤ 200 nM | < 200 nM |
